Test results taken from ChEMBL document CHEMBL1123075, “Opioid agonists and antagonists. 6-Desoxy-6-substituted lactone, epoxide, and glycidate ester derivatives of naltrexone and oxymorphone” (J Med Chem, 1985).

Experiments:
Opioid receptor [1] = molecular target: T1, Opioid receptor (Rattus norvegicus, UniProt P33533+P34975+P33535); experiment: In vitro opioid receptor binding competition against 1 nM [3H]- Naltrexone in the absence of NaCl.; type: protein assay
Opioid receptor [2] = molecular target: T1, Opioid receptor; experiment: In vitro opioid receptor binding competition against 1 nM [3H]- Naltrexone in the presence of 100 mM NaCl.; type: protein assay
[3] = molecular target: Opioid receptor (Rattus norvegicus) (UniProt P33533+P34975+P33535); experiment: Ratio of IC50 value in presence of NaCl to that of NaCl absence against opioid receptor.; type: protein assay
[4] = Activity against specific binding of [3H]naltrxone at dose 200 nM & at 25 degree C in the absence of Na+ ion (unwashed )
[5] = Activity against specific binding of [3H]naltrxone at dose 75 nM & at 37 degree C in the absence of Na+ ion (washed)
[6] = Activity against specific binding of [3H]naltrxone at dose 200 nM & at 25 degree C in the absence of Na+ ion (washed)
[7] = Activity against specific binding of [3H]naltrxone at dose 200 nM & at 25 degree C in the presence of Na+ ion (washed)
[8] = Activity against specific binding of [3H]naltrxone at dose 500 nM & at 37 degree C in the presence of Na+ ion (unwashed )
[9] = Activity against specific binding of [3H]naltrxone at dose 75 nM & at 37 degree C in the absence of Na+ ion (unwashed )
[10] = Activity against specific binding of [3H]naltrxone at dose 500 nM & at 37 degree C in the presence of Na+ ion(washed)
[11] = Activity against specific binding of [3H]-naltrxone at dose 200 nM & at 25 degree C in the presence of Na+ ion (unwashed )

Structure (SMILES)	IC50 (Opioid receptor [1])	IC50 (Opioid receptor [2])	Ratio [3]	also measured
C=C1CC2(CCC3(O)[C@H]4Cc5ccc(O)c6c5[C@@]3(CCN4C)C2O6)OC1=O (stereo in doubt; 5b) [listing 1 of 2 here]	35 nM	250 nM	–	–
Oc1ccc2c3c1OC1C4(CCC5(O)[C@@H](C2)N(CC2CC2)CC[C@]315)CO4 (stereo in doubt; 12a) [listing 1 of 2 here]	–	–	0.5	–
CCOC(=O)[C@@H]1OC12CCC1(O)C3Cc4ccc(O)c5c4[C@@]1(CCN3C)C2O5 (stereo partly specified)	15 nM	200 nM	13.3	–
C=C1CC2(CCC3(O)[C@H]4Cc5ccc(O)c6c5[C@@]3(CCN4C)C2O6)OC1=O (stereo in doubt; 5b) [listing 2 of 2 here]	–	–	7	Control [4]: 35%; Control [5]: 97%; Control [6]: 79%; Control [7]: 63%; Control [8]: 34%; Control [9]: 66%; Control [10]: 56%; Control [11]: 43%
CC1CC2(CCC3(O)[C@H]4Cc5ccc(O)c6c5[C@@]3(CCN4CC3CC3)C2O6)OC1=O (stereo partly specified)	10 nM	6 nM	0.6	–
CC1CC2(CCC3(O)C4Cc5ccc(O)c6c5[C@@]3(CCN4C)C2O6)OC1=O (stereo partly specified)	30 nM	500 nM	16.7	–
C=C1CC2(CCC3(O)[C@H]4Cc5ccc(O)c6c5[C@@]3(CCN4CC3CC3)C2O6)OC1=O (stereo in doubt; 5a) [listing 1 of 2 here]	5 nM	2 nM	–	–
C=C1C(=O)OC2C1CC1(O)[C@H]3Cc4ccc(O)c5c4[C@@]1(CCN3CC1CC1)C2O5 (stereo partly specified)	10 nM	7 nM	0.7	–
C=C1CC2(CCC3(O)[C@H]4Cc5ccc(O)c6c5[C@@]3(CCN4CC3CC3)C2O6)OC1=O (stereo in doubt; 5a) [listing 2 of 2 here]	–	–	0.4	–
CCOC(=O)[C@H]1OC12CCC1(O)[C@H]3Cc4ccc(O)c5c4[C@@]1(CCN3CC1CC1)C2O5 (stereo partly specified)	2.3 nM	3.5 nM	1.5	–
CC1=CC2(CCC3(O)[C@H]4Cc5ccc(O)c6c5[C@@]3(CCN4CC3CC3)C2O6)OC1=O (stereo partly specified)	40 nM	70 nM	1.8	–
CC1=CC2(CCC3(O)C4Cc5ccc(O)c6c5[C@@]3(CCN4C)C2O6)OC1=O (stereo partly specified)	200 nM	> 1000 nM	> 5	–
CCOC(=O)[C@@H]1OC12CCC1(O)[C@H]3Cc4ccc(O)c5c4[C@@]1(CCN3CC1CC1)C2O5 (stereo partly specified)	6 nM	–	1	–
C=C1C(=O)OC2=C1CC1(O)[C@H]3Cc4ccc(O)c5c4[C@@]1(CCN3CC1CC1)C2O5 (stereo partly specified)	100 nM	50 nM	0.5	–
C=C1CC2(CCC3(O)[C@H]4Cc5ccc(O)c6c5[C@@]3(CCN4CC3CC3)C2O6)OC1=O (stereo in doubt; 6a) [listing 1 of 2 here]	12.5 nM	15 nM	–	–
Oc1ccc2c3c1OC1C4(CCC5(O)[C@@H](C2)N(CC2CC2)CC[C@]315)CO4 (stereo in doubt; 13a) [listing 1 of 2 here]	–	–	0.6	–
C=C1CC2(CCC3(O)[C@H]4Cc5ccc(O)c6c5[C@@]3(CCN4C)C2O6)OC1=O (stereo in doubt; 6b) [listing 1 of 2 here]	–	–	7	–
CCOC(=O)[C@H]1OC12CCC1(O)C3Cc4ccc(O)c5c4[C@@]1(CCN3C)C2O5 (stereo partly specified)	70 nM	1000 nM	14.2	–
Oc1ccc2c3c1OC1C4(CCC5(O)[C@@H](C2)N(CC2CC2)CC[C@]315)CO4 (stereo in doubt; 13a) [listing 2 of 2 here]	5.1 nM	3.4 nM	–	–
Oc1ccc2c3c1OC1C4(CCC5(O)[C@@H](C2)N(CC2CC2)CC[C@]315)CO4 (stereo in doubt; 12a) [listing 2 of 2 here]	4 nM	2 nM	–	–
O=C1C=CC2(CCC3(O)[C@H]4Cc5ccc(O)c6c5[C@@]3(CCN4CC3CC3)C2O6)O1 (stereo partly specified)	10 nM	10 nM	1	–
CN1CC[C@]23c4c5ccc(O)c4OC2C2(CCC3(O)C1C5)CO2 (stereo partly specified)	8 nM	60 nM	7.5	–
C=C1CC2(CCC3(O)[C@H]4Cc5ccc(O)c6c5[C@@]3(CCN4C)C2O6)OC1=O (stereo in doubt; 6b) [listing 2 of 2 here]	125 nM	880 nM	–	–
C=C1CC2(CCC3(O)[C@H]4Cc5ccc(O)c6c5[C@@]3(CCN4CC3CC3)C2O6)OC1=O (stereo in doubt; 6a) [listing 2 of 2 here]	–	–	1.2	–
